According to patent US11591350B2, “Modulators of cystic fibrosis transmembrane conductance regulator” (Vertex Pharmaceuticals Incorporated, priority 2019, dated 2023):

Each compound was assayed against CFTR (Homo sapiens, UniProt P13569) (assay: Membrane potential dye assay (FLIPR Tetra) of CFTR-mediated chloride transport in enteroid cells). Settings: human intestinal epithelial enteroid cells; test compound 18-24 hours; acute 10 μM forskolin and 300 nM Compound III.
Sequence of CFTR (P13569 with tags, fused parts or gaps DEL508-508): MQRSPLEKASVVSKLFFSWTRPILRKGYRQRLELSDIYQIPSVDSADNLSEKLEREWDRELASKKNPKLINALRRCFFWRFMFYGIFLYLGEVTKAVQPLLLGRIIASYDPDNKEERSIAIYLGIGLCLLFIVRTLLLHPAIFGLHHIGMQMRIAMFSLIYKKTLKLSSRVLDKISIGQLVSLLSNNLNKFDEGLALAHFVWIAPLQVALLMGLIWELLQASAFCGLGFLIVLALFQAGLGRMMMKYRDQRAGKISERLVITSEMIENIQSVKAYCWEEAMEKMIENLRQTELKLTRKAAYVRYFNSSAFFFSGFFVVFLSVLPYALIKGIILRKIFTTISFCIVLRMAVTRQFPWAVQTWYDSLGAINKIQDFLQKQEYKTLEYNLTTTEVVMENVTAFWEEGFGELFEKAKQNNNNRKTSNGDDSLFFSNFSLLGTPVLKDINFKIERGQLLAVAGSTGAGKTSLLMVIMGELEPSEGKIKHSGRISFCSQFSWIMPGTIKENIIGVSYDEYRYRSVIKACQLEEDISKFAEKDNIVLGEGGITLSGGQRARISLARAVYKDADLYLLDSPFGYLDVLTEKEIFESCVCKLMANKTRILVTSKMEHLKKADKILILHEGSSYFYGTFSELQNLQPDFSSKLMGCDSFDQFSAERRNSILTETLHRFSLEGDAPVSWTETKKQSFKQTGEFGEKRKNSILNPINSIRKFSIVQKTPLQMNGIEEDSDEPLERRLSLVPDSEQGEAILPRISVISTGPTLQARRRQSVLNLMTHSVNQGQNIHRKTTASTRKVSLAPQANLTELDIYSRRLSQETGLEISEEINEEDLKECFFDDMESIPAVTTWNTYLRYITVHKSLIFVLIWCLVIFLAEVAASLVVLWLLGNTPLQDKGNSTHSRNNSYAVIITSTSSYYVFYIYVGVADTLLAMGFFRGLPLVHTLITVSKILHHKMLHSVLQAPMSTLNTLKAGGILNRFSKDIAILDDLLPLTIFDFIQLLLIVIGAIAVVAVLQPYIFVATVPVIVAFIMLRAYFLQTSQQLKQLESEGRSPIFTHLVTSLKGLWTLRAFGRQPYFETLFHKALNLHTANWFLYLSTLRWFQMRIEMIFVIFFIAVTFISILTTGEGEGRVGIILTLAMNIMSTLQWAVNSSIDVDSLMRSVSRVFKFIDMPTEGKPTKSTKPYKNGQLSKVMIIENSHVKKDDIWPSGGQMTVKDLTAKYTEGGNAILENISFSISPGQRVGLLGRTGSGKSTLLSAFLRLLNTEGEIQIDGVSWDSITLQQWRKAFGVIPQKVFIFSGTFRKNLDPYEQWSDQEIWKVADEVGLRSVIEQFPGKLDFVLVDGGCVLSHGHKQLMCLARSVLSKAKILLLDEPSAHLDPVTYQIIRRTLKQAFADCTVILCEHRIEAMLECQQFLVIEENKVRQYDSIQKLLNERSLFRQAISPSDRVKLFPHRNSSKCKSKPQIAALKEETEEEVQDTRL
Format: cell-based
Excerpt: Enteroid Cell Harvesting and Seeding
Membrane Potential Dye Assay
With CC(C)(C)CC[Si](C)(C)c1ccn(-c2ccc3c(n2)N2C[C@@H](CCCNc4cccc(n4)S(=O)(=O)NC3=O)CC2(C)C)n1 [Compound (1-4), (14S)-8-{3-[(3,3-dimethylbutyl)dimethylsilyl]-1H-pyrazol-1-yl}-12,12-dimethyl-2λ^6-thia-3,9,11,18,23-pentaazatetracyclo[17.3.1.111,14.05,10]tetracosa-1(23),5(10),6,8,19,21-hexaene-2,2,4-trione] the EC50 was < 1000 nM.
For CC1(C)C[C@@H]2CCCNc3cccc(n3)S(=O)(=O)NC(=O)c3ccc(-n4ccc(OCCC[Si](C)(C)C)n4)nc3N1C2 [Compound (1-6), (14S)-12,12-dimethyl-8-{3-[3-(trimethylsilyl)Propoxy]-1H-pyrazol-1-yl}-2λ^6-thia-3,9,11,18,23-pentaazatetracyclo[17.3.1.111,14.05,10]tetracosa-1(22),5(10),6,8,19(23),20-hexaene-2,2,4-trione], the EC50 was < 1000 nM.
With CC1(C)C[C@@H]2CCCNc3cccc(n3)S(=O)(=O)NC(=O)c3ccc(-n4ccc(OC[Si](C)(C)C5(C(F)(F)F)CC5)n4)nc3N1C2 [Compound (1-1), (14S)-8-[3-({dimethyl[1-(trifluoromethyl)cyclopropyl]silyl}methoxy)-1H-pyrazol-1-yl]-12,12-dimethyl-2λ^6-thia-3,9,11,18,23-pentaazatetracyclo[17.3.1.111,14.05,10]tetracosa-1(22),5(10),6,8,19(23),20-hexaene-2,2,4-trione] the EC50 was < 1000 nM.
For CC1(C)C[C@@H]2CCCNc3cccc(n3)S(=O)(=O)NC(=O)c3ccc(-n4ccc(OC[Si](C)(C)C(C)(C)C)n4)nc3N1C2 [Compound (1-2), (14S)-8-{3-[(tert-butyldimethylsilyl)methoxy]-1H-pyrazol-1-yl}-12,12-dimethyl-2λ^6-thia-3,9,11,18,23-pentaazatetracyclo[17.3.1.111,14.05,10]tetracosa-1(23),5(10),6,8,19,21-hexaene-2,2,4-trione], the EC50 was < 1000 nM.
CC1(C)C[C@@H]2CCCNc3cccc(n3)S(=O)(=O)NC(=O)c3ccc(-n4ccc(O[CH2][Ge]([CH3])([CH3])[CH3])n4)nc3N1C2 [Compound (2-1), (14S)-12,12-dimethyl-8-{3-[(trimethylgermyl)methoxy]-1H-pyrazol-1-yl}-2λ^6-thia-3,9,11,18,23-pentaazatetracyclo[17.3.1.111,14.05,10]tetracosa-1(23),5(10),6,8,19,21-hexaene-2,2,4-trione] was tested, and the EC50 was < 1000 nM.
CC1(C)C[C@@H]2CCCNc3cccc(n3)S(=O)(=O)NC(=O)c3ccc(-n4ccc(OCC[Si](C)(C)C)n4)nc3N1C2 [Compound (1-7), (14S)-12,12-dimethyl-8-{3-[2-(trimethylsilyl)ethoxy]-1H-pyrazol-1-yl}-2λ^6-thia-3,9,11,18,23-pentaazatetracyclo[17.3.1.111,14.05,10]tetracosa-1(22),5(10),6,8,19(23),20-hexaene-2,2,4-trione] was tested, and the EC50 was < 1000 nM.
With CC1(C)C[C@@H]2CCCNc3cccc(n3)S(=O)(=O)NC(=O)c3ccc(-n4ccc(OCCC5([Si](C)(C)C)CC5)n4)nc3N1C2 [(1-3)] the EC50 was < 1000 nM.
In the case of CC1(C)C[C@@H]2CCCNc3cccc(n3)S(=O)(=O)NC(=O)c3ccc(-n4ccc(OC[Si](C)(C)C)n4)nc3N1C2 [Compound (1-8), (14S)-12,12-dimethyl-8-{3-[(trimethylsilyl)methoxy]-1H-pyrazol-1-yl}-2λ^6-thia-3,9,11,18,23-pentaazatetracyclo[17.3.1.111,14.05,10]tetracosa-1(22),5(10),6,8,19(23),20-hexaene-2,2,4-trione], the EC50 is reported as < 1000 nM.
